Experimental data reported in patent US20050209319A1, “Treatment of local pain” (XenoPort, Inc., priority 2004, published 2005).
Like-named read-outs stand apart in the source and are kept apart here.

How the values were obtained:
[1] = Parallel artificial membrane permeability assay (PAMPA); format: in vitro ADME; conditions: for Passive permeability in vitro across artificial membranes (in words): PAMPA assays; for Papp at 2 h, 50 µM: PAMPA
Protocol: Artificial membranes were prepared by adding 4 μL of 2% (w/v) dioleoylphosphatidyl-choline in dodecane onto the hydrophobic filters ([…] polyvinylidene fluoride) on the base of the wells of a 96-well donor plate (Millipore, Bedford, Mass.). Gabapentin or a gabapentin prodrug (150 μL of 50 μM solution in 0.1 M Tris buffer, pH 6.5 or pH 7.4) was added to the donor wells in triplicate. The gabapentin prodrug used was 1-{[(α-isobutanoyloxyethoxy)carbonyl]-aminomethyl}-1-cyclohexane acetic acid. The plate was placed onto a 96-well acceptor plate (Agilent, Wilmington, Del.), in which each well contained 400 μL 0.1 M Tris, pH 7.4. Following incubation for two hours at room temperature, samples of the donor and receiver chambers were removed for analysis by LC/MS/MS. The permeability coefficient through the artificial membrane (“Pam”) was calculated using standard methods (Sugano et al., Int. J. Pharm., 2001, 228, pp. 181-188). The artificial membrane permeability coefficient, Pam, of 1-{[(α-isobutanoyloxyethoxy)carbonyl]-aminomethyl}-1-cyclohexane acetic acid was about 5 to 30 times higher than the Pam for gabapentin at the two test pH values as shown in Table 2.

Caco-2 cell monolayers = assay: Permeability across Caco-2 cell monolayers (cultured human epithelial cell monolayer assay); format: in vitro ADME; conditions: for Permeability coefficient (Papp) A to B: apical to basolateral; for Permeability coefficient (Papp) A to B / Permeability coefficient (Papp) B to A: donor 100-200 μM, 1 hr at 37° C, apical pH 6.5, basolateral pH 7.4; for Permeability coefficient (Papp) B to A: basolateral to apical
From the text: The following comparative test was run to determine the permeability of gabapentin and a prodrug of gabapentin across a cultured monolayer of human mucosal tissue cells (intestinal epithelial cells). Intestinal epithelial cells have an apical side (i.e., the side normally facing the gut lumen) and a basolateral side (i.e., the side normally facing the patient's internal blood carrying tissues). Both the permeability of the compounds through the monolayer of cells from apical to basolateral (A to B) and basolateral to apical (B to A) were measured.
Caco-2 cells were obtained from the ATCC (Manassas, Va.) and cultured as indicated by the supplier. Caco-2 cells were seeded into 24-well transwell plates with 3 μm filters (Corning/Costar, Acton, Mass.) at a density of 500,000 cells/well and allowed to differentiate in the transwell plates for 21 days. The test compounds were dissolved into either pH 6.5 (apical MES (4-morpholineethane sulfonic acid) buffer) or pH 7.4 (basolateral HBSS (Hanks balanced salt solution) buffer) at concentrations of 100 to 200 μM and added to the appropriate chambers. Samples were removed from the receiving chambers at various times and the permeability was measured by determining the concentration of prodrug and gabapentin (produced by esterase cleavage within the epithelial cells) by LC/MS/MS (liquid chromatography/mass spectroscopy/mass spectroscopy). Apparent permeability coefficients (“Papp”) were calculated by standard methods (B. H. Stewart et al., Pharm. Res., 1995, 12, pp. 693-699). Integrity of the monolayer was confirmed by determining the permeability of 3H-inulin. If greater than 0.5% of the inulin was detected in the receiving chamber, the transwells were discarded.

[2] = injection into hindpaw of rats pretreated with 2% formalin injection; cited from earlier work

Compound | Passive permeability in vitro across artificial membranes (in words) [1] | Permeability coefficient (Pam) pH 6.5 ([1]; donor chamber pH 6.5, 50 μM, two hours at room temperature, acceptor pH 7.4) | Permeability coefficient (Pam) pH 7.4 ([1]; donor chamber pH 7.4, 50 μM, two hours at room temperature, acceptor pH 7.4) | Passive permeability in vitro through Caco-2 cell monolayers (in words) (Caco-2 cell monolayers) | Permeability coefficient (Papp) A to B (Caco-2 cell monolayers) | Permeability coefficient (Papp) B to A (Caco-2 cell monolayers) | Papp compared with the Papp for gabapentin (Caco-2 cell monolayers; from the basolateral to the apical side) | Papp at 2 h, 50 µM ([1]; donor chamber pH 6.5, 50 μM, two hours at room temperature, acceptor pH 7.4, read-out: Permeability coefficient (Pam) pH 6.5) | Papp at 2 h, 50 µM ([1]; donor chamber pH 7.4, 50 μM, two hours at room temperature, acceptor pH 7.4, read-out: Permeability coefficient (Pam) pH 7.4) | Effect on nociceptive behavior [2] | Passive permeability in vitro through Caco-2 cell monolayers (in words) (Caco-2 cell monolayers; Caco-2)
CC(OC(=O)NCC1(CC(=O)O)CCCCC1)OC(=O)C(C)C (stereo not drawn) [1-{[(α-isobutanoyloxyethoxy)carbonyl]-aminomethyl}-1-cyclohexane acetic acid] | relatively high passive permeability | 0.65 (cm/sec) × 10^6 | 0.095 (cm/sec) × 10^6 | relatively high passive permeability | 31 (cm/sec) × 10^6 | 5.7 (cm/sec) × 10^6 | significantly higher | – | – | – | –
NCC1(CC(=O)O)CCCCC1 [Gabapentin] | limited passive permeability | – | – | – | 3.2 (cm/sec) × 10^6 | 3.4 (cm/sec) × 10^6 | – | 0.02 ×10⁻⁶ cm/s | 0.026 ×10⁻⁶ cm/s | significantly reduced nociceptive behavior | limited passive permeability
